This is an account of results in PubChem BioAssay AID623940 (Vanderbilt Specialized Chemistry Center, 2012).

pEC50: −log10 of the molar value. The source made the active and inactive calls.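 The calls were made as follows: active = a response that changes with dose, reported with a potency and a percent of the peak acetylcholine response; inactive = the rest.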

The assay concerns the target Muscarinic acetylcholine receptor M1 (Rattus norvegicus) (UniProt P08482). The assay can be described thus: off-target potentiation of rat M1 ACh response – CHO cells, Fluo-4 calcium, ACh EC20, selectivity assay for M4 PAM optimization project, SAR follow-up (AID 623940). The conditions noted are these: CHO rat M1, Fluo-4 calcium; for percent of ACh max response: at 30 µM (top of the series).

Chain of Muscarinic acetylcholine receptor M1 (Rattus norvegicus) (P08482 whole entry, looked up): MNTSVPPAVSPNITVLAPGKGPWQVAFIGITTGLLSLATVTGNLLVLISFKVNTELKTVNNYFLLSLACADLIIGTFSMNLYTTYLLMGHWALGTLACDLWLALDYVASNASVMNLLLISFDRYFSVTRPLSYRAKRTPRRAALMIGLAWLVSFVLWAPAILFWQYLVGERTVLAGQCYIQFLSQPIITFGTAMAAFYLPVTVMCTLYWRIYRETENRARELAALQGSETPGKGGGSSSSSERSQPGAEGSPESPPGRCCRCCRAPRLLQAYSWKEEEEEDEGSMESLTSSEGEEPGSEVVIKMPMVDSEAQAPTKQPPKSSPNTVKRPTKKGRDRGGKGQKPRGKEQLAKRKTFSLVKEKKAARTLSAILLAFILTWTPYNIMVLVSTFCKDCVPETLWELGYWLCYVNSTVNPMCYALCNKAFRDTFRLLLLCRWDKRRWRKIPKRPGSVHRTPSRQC

`Cc1nc2sc(C(=O)NCc3ccncc3)c(N)c2c(C)c1Cl`: the result was inactive.

With `Cc1nc2sc(C(=O)NCc3ccncn3)c(N)c2c(C)c1Cl`, the “percent of ACh max response” value is “inactive”.

As for `Cc1nc2sc(C(=O)NCc3cccc(F)c3F)c(N)c2c(C)c1Cl`, the “percent of ACh max response” value was “inactive”.

`Cc1nc2sc(C(=O)NCc3cccnc3)c(N)c2c(C)c1Cl`: the outcome was inactive.

Regarding `Cc1nc2sc(C(=O)NCc3ccccc3)c(N)c2c(C)c1Cl`, the result was inactive.

For `Cc1nc2sc(C(=O)NCCc3ccncc3)c(N)c2c(C)c1Cl`, the “percent of ACh max response” value is “inactive”.

As for `Cc1nc2sc(C(=O)NCc3ccc4c(c3)OCO4)c(N)c2c(C)c1Cl`, the result was inactive.

In the case of `COc1ccc(C)c2sc(NC(=O)c3ccncc3)nc12`, the “percent of ACh max response” value was “inactive”.

As a reminder, the pEC50 is −log10 of the EC50, conventionally taken in molar units. `Cc1nc2sc(C(=O)NC3CC3)c(N)c2c(C)c1Cl`: the pEC50 was 6.03.

For the molecule `Cc1nc2sc(C(=O)NCc3nccs3)c(N)c2c(C)c1Cl`, the “percent of ACh max response” value is “inactive”.
